Where two headings read alike, the source gives them in different places.
Tests used:
[1] = system: Human B cell lymphoma cell line Ramos; experiment: Ramos Calcium Influx FLIPR Assay; type: cell-based; details: Ramos cells, anti-human IgM 10 μg/mL stimulation, read-out: RAMOS_IC50
Procedure: Ramos Calcium Influx FLIPR Assay
Human B cell lymphoma cell line Ramos was cultivated in RPMI-1640 with 10% Fetal Bovine Serum (Invitrogen). Cells were seeded into assay plate and loaded with calcium dye by adding 30 μl of dye loading buffer according to manufacturer's instruction (Beckton Dickinson Calcium Kit, Cat#80500). The cells were then treated with serial diluted compounds for 30 min before stimulation. Baseline fluorescence was recorded for about 20 seconds followed by stimulation with mouse anti-human IgM (10 μg/mL, clone M2E6, Antibody Solutions Inc.) for Ramos cells, and record of the maximal fluorescent counts in each well. Maximal counts divided by baseline counts, defined as fold change from baseline for each well, was used for IC50 calculation.

[2] = system: B cell CD69 up-regulation in human whole blood; experiment: B Cell CD69 Up-Regulation Assay in Human Whole Blood; type: cell-based; details: anti-human IgM 50 μg/mL for 20 h, CD69hi CD20+ B cells
Procedure: B Cell CD69 Up-Regulation Assay in Human Whole Blood
Human Blood was collected from healthy volunteers into Vacutainers (BD Biosciences, San Jose, Calif.) containing sodium heparin. Test compound was suspended in DMSO and nine half-log serial dilutions were made. The concentration of […] in the assay was 0.5%. 100 μL whole blood was pre-incubated with compound for 30 min and then stimulated with goat F(ab′)2 anti-human IgM (50 μg/mL, Southern Biotech) for 20 h. At the end of the 20 hour incubation, samples were incubated with fluorochrome-conjugated antibodies, PE mouse anti-human CD20 and APC Mouse anti-human CD69 (BD Biosciences), for 30 minutes. Samples were then lysed with Lyse solution (BD) and washed with PBS containing 2% fetal bovine serum (FBS). Fluorescent signals were acquired on flow cytometer LSR II (BD) and data were analyzed by Flow Jo. The percentage of activated (CD69hi) B-cell lymphocytes (CD20+) were determined using un-stimulated (negative control) and stimulated (positive control) wells as reference guidelines. The percentage inhibition was calculated and an IC50 curve was constructed using GraphPad Prism software with sigmoidal curve fitting.

[3] = target: recombinant human SYK360-635 (Spleen Tyrosine Kinase) (Homo sapiens (Human), UniProt P43405); experiment: SYK kinase assay (33P filtration, IC50 of SYK inhibition)
Procedure: Determination of IC50 of Spleen Tyrosine Kinase (SYK) inhibition:
SYK kinase assay is a standard kinase assay adapted to a 96 well plate format. This assay is performed in 96-well format for IC50 determination with 8 samples which represented 10 half log dilutions and a 40 μL reaction volume. The assay measures the incorporation of radiolabeled ^33P γATP into an N-terminally biotinylated peptide substrate, derived from naturally occurring phosphoacceptor consensus sequence (Biotin-11aa DY*E). Phosphorylated products were detected upon termination of reactions with EDTA and the addition of Streptavidin coated beads.
BSA: Bovine Serum Albumin Fraction V, fatty acid free (Roche Diagnostics GmbH, Cat. No. 9100221) diluted to a final concentration of 0.1%
Assay Dilution Buffer (ADB): 50 mM HEPES, 0.1 mM EGTA, 0.1 mM Na Vanadate, 0.1 mM (3-glycerophosphate, 10 mM MgCl2, 1 mM DTT, 0.1% BSA, pH 7.5
Bead wash buffer: 10 g/L PBS (Phosphate buffered saline) with 2M NaCl+1% phosphoric acid.
DMSO and the mixture was incubated for 10 min at RT.
The kinase reaction was initiated by the addition of 10 μL 4× substrate cocktail containing the DYE peptide substrate [0 or 5 μM], ATP [20 μM] and ^33PγATP [2 μCi/r×n]. After incubation at 30° C. for 15 min, the reaction was terminated by the transfer of 25 μL of the reaction sample to a 96 well 0.65 μm Millipore MADVNOB membrane/plate containing 200 μL 5 mM EDTA and 20% Streptavidine coated beads in PBS.
The unbound radionucleotides were washed under vacuum with 3×250 μL 2M NaCl; 2×250 μL 2M NaCl+1% phosphoric acid; 1×250 μL H2O. After the last wash membrane/plates were transferred to an adaptor plate, heat dried for 15 min at 60° C., and 50 μL scintillation cocktail was added to each well and 4 h later the amount of radioactivity was counted in a top counter.

[4] = read-out: ENZYME_FILTRATION_IC50, SYK 0.5 nM, ATP 20 μM, 33P filtration

| SMILES | IC50 [1] | IC50 [2] | IC50 [3, 4] | IC50 [3] |
| --- | --- | --- | --- | --- |
| Cc1ccc(Nc2cnc3[nH]cc(C(=O)NC(C)(C)C)c3n2)c(F)c1 [Compound I-11, N-tert-butyl-2-(2-fluoro-4-methylphenylamino)-5H-pyrrolo[2,3-b]pyrazine-7-carboxamide] | 1330 nM | – | 10.9 nM | – |
| CN(C)C(=O)c1ccccc1Nc1cnc2[nH]cc(C(=O)NC(C)(C)C)c2n1 [Compound I-15, N-tert-butyl-2-(2-(dimethylcarbamoyl)phenylamino)-5H-pyrrolo[2,3-b]pyrazine-7-carboxamide] | – | 6940 nM | 934 nM | – |
| Cc1ccc(Nc2cnc3[nH]cc(C(=O)NC(C)(C)C)c3n2)c(C)c1 [Compound I-19, N-tert-butyl-2-(2,4-dimethylphenylamino)-5H-pyrrolo[2,3-b]pyrazine-7-carboxamide] | 518 nM | – | 117 nM | – |
| CC(C)(C)NC(=O)c1c[nH]c2ncc(Nc3ccnc(S(C)(=O)=O)c3)nc12 [Compound I-28, N-tert-butyl-2-(2-(methylsulfonyl)pyridin-4-ylamino)-5H-pyrrolo[2,3-b]pyrazine-7-carboxamide] | 806 nM | – | 121 nM | – |
| CC(C)(C)NC(=O)c1c[nH]c2ncc(Nc3cncc(S(C)(=O)=O)c3)nc12 [Compound I-29, N-tert-butyl-2-(5-(methylsulfonyl)pyridin-3-ylamino)-5H-pyrrolo[2,3-b]pyrazine-7-carboxamide] | 642 nM | – | 228 nM | – |
| Cc1nsc(Nc2cnc3[nH]cc(C(=O)NC(C)(C)C)c3n2)n1 [Compound I-31, N-tert-butyl-2-(3-methyl-1,2,4-thiadiazol-5-ylamino)-5H-pyrrolo[2,3-b]pyrazine-7-carboxamide] | 251 nM | – | 17.8 nM | – |
| Cc1nc2[nH]cc(C(=O)NC(C)(C)C)c2nc1Nc1cnn(C)c1 [Compound I-34, 3-Methyl-2-(1-methyl-1H-pyrazol-4-ylamino)-5H-pyrrolo[2,3-b]pyrazine-7-carboxylic acid tert-butylamide] | 2170 nM | 5120 nM | – | – |
| Cc1nc2[nH]cc(C(=O)NC(C)(C)C)c2nc1Nc1cccc(S(C)(=O)=O)c1 [Compound I-35, 2-(3-Methanesulfonyl-phenylamino)-3-methyl-5H-pyrrolo[2,3-b]pyrazine-7-carboxylic acid tert-butylamide] | – | – | 2940 nM | – |
| Cc1cc(Nc2nc3c(C(=O)NC(C)(C)C)c[nH]c3nc2Cl)sn1 [Compound I-38, N-tert-butyl-3-chloro-2-(3-methylisothiazol-5-ylamino)-5H-pyrrolo[2,3-b]pyrazine-7-carboxamide] | 14900 nM | – | 640 nM | – |

Now from value to compound:

| IC50 [1] | IC50 [2] | IC50 [3, 4] | IC50 [3] | SMILES |
| --- | --- | --- | --- | --- |
| 122 nM | 627 nM | 8.5 nM | – | Cc1ccc(Nc2cnc3[nH]cc(C(=O)NC(C)(C)C)c3n2)nc1 [Compound I-1, N-tert-butyl-2-(5-methylpyridin-2-ylamino)-5H-pyrrolo[2,3-b]pyrazine-7-carboxamide] |
| 245 nM | 535 nM | 27.4 nM | – | Cc1ccc(Nc2cnc3[nH]cc(C(=O)NC(C)(C)CO)c3n2)nc1 [Compound I-2, N-(1-hydroxy-2-methylpropan-2-yl)-2-(5-methylpyridin-2-ylamino)-5H-pyrrolo[2,3-b]pyrazine-7-carboxamide] |
| 64.5 nM | – | 16.3 nM | – | CC(C)(C)NC(=O)c1c[nH]c2ncc(Nc3cccnc3)nc12 [Compound I-10, N-tert-butyl-2-(pyridin-3-ylamino)-5H-pyrrolo[2,3-b]pyrazine-7-carboxamide] |
| 216 nM | – | 5.6 nM | – | CC(C)(CO)NC(=O)c1c[nH]c2ncc(Nc3cccnc3)nc12 [Compound I-26, N-(1-hydroxy-2-methylpropan-2-yl)-2-(pyridin-3-ylamino)-5H-pyrrolo[2,3-b]pyrazine-7-carboxamide] |
| 37.7 nM | – | – | 4.8 nM | [2H]c1c([2H])c([2H])c(Nc2cnc3[nH]cc(C(=O)NC(C)(C)C)c3n2)c([2H])c1[2H] [Compound I-37, 2-Phenylamino(D5)-5H-pyrrolo[2,3-b]pyrazine-7-carboxylic acid tert-butylamide] |
